Consider 7 compounds from US8623901B2, “Compounds for the treatment of CNS disorders” (Boehringer Ingelheim International GmbH, priority 2009, dated 2014).

For one assay, the target named is human PDE9A2 (Homo sapiens (Human), UniProt O76083). The assay is described as follows: PDE9A2 enzymatic activity assay (scintillation proximity assay). The assay is classed as biochemical. The protocol: As enzyme source, lysate (PBS with 1% Triton X-100 supplemented with protease inhibitors, cell debris removed by centrifugation at 13.000 rpm for 30 min) of SF 9 cell expressing the human PDE9A2 was used. The total protein amount included in the assay varied upon infection and production efficacy of the SF9 cells and lay in the range of 0.1-100 ng.
Chain of human PDE9A2 (O76083 other isoform, or with tags, fused parts or gaps): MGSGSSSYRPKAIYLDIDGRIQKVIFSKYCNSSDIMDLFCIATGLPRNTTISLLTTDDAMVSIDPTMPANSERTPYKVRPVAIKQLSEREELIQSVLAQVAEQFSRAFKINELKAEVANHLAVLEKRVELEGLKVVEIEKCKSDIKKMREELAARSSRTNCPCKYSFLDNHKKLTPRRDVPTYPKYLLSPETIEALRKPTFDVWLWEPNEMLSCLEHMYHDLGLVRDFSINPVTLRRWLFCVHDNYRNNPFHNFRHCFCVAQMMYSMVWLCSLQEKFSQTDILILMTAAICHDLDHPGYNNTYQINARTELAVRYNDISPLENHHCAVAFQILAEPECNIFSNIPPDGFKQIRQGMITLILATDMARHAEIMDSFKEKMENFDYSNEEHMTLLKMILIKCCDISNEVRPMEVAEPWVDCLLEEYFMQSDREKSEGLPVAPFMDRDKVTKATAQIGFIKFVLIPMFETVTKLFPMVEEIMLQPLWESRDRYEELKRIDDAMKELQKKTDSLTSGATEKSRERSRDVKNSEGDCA
The assays were run in 384-well format. The test reagents as well as the enzyme and the substrate were diluted in assay buffer. The assay buffer contained 50 mM Tris, 8.3 mM MgCl2, 1.7 mM EGTA, 0.1% BSA, 0.05% Tween 20; the pH of assay buffer was adjusted to 7.5.
The activity of the positive control (minus the negative control=background) is set to 100% and activity in the presence of test compound is expressed relative to these 100%.
(§1) IC50 can be calculated with GraphPadPrism or other suited software setting the positive control as 100 and the negative control as 0. For calculation of IC50 dilutions of the test compounds (substrates) are to be selected and tested following the aforementioned protocol.
A general note: In a scintillation proximity assay essentially only radioactivity close to the scintillant gives light.

For a further assay, the target named is PDE1C (Homo sapiens (Human), UniProt Q14123). In words: PDE1C assay (SPA, analogue to the PDE9A2 assay). The assay is classed as biochemical. The conditions noted are these: ratio PDE1C IC50 / PDE9A2 IC50.
From the text: The reaction can be stopped by applying the same inhibitor than the one that is outlined above (1-(2-Chlorophenyl)-6-[(2R)-3,3,3-trifluoro-2-methyl-propyl]-1,5-dihydro-4H-pyrazolo[3,4-d]pyrimidine-4-one).
as §1

The target in another assay is human PDE9A (Homo sapiens (Human), UniProt O76083). The conditions noted are these: concentrations of up to 100 micromolar (μM); cited from earlier work.
Chain of human PDE9A (O76083 whole entry): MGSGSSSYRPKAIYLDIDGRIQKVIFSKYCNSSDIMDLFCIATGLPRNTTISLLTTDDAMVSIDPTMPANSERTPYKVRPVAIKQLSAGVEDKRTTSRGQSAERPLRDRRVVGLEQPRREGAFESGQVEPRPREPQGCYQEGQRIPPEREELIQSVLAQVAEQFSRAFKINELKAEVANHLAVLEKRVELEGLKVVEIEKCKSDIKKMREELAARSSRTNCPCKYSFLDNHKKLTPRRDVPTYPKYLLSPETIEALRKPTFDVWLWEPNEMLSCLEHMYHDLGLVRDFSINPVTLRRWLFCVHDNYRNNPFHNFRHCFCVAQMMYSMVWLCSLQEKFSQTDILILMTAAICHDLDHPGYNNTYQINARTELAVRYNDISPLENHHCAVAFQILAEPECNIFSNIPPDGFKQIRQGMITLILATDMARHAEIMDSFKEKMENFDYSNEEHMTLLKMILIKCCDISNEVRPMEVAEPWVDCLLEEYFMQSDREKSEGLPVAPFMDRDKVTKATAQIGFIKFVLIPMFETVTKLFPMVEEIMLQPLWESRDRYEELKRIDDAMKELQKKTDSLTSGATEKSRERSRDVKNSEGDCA
The next assay concerns the target Murine PDE9A (Mus musculus (Mouse), UniProt O70628). The note with it: cited from earlier work.

Each structure is given as a SMILES string. pIC50: −log10 of the molar value.

Chain of Murine PDE9A (O70628 whole entry): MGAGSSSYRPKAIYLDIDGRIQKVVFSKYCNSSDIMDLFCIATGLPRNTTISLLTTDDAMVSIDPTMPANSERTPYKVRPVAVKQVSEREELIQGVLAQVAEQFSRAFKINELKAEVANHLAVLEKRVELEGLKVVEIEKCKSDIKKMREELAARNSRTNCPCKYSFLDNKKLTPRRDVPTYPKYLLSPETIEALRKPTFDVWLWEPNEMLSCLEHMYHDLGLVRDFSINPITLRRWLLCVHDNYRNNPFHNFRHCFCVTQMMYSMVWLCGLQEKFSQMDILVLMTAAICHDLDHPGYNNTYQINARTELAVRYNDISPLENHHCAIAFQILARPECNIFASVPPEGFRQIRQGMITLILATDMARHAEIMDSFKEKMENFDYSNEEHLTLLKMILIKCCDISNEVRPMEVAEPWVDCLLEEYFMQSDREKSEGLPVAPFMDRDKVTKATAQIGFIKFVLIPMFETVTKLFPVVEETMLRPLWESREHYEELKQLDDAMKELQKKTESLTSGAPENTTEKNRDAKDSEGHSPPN

As to `CC(C)(C)c1cccc(-c2ccccc2Cc2nc3c(cnn3C3CCOCC3)c(=O)[nH]2)n1` [Example 259], at human PDE9A2 (PDE9A2, 10 microM test compound, read-out: I % (at 10 microM): inhibition at 10 micromolar concentration), the inhibition at 10 µM was determined as 102%. Besides, at human PDE9A2 (human PDE9A2, cGMP 20 nanomolar, read-out: IC50 values for PDE9A2 inhibition), the negative-log IC50 (pIC50) (commonly −log10 of the IC50, conventionally taken in molar units) is 8.52. The “S: selectivity values [= (IC50 for PDE1C inhibition)/(IC50 for PDE9A2 inhibition)]” value on PDE1C amounted to 942.
Regarding `CC(C)Cn1c(=O)n(C)c(=O)c2[nH]cnc21` [IBMX], the “inhibition on the isolated enzyme” value on human PDE9A is “no inhibition”. For the same compound, on Murine PDE9A (concentrations below 200 micromolar), the “inhibition of murine PDE9A” value is listed as “not inhibited”.
`CC(=O)Nc1ccc(-c2c[nH]c(=O)cn2)cc1` [SKF94120]: at human PDE9A, the “inhibition on the isolated enzyme” value is given as “no inhibition”.
On to `CCOC(=O)C1=C[C@]2(CC)CCCN3CCc4c(n1c1ccccc41)[C@@H]32` [vinpocetine], for which, at human PDE9A, the “inhibition on the isolated enzyme” value is listed as “no inhibition”.
Turning to `OCCN(CCO)c1nc(N2CCCCC2)c2nc(N(CCO)CCO)nc(N3CCCCC3)c2n1` [dipyridamole], on human PDE9A, the “inhibition on the isolated enzyme” value is given as “no inhibition”.
As for `CCCOc1ccccc1-c1nc2nn[nH]c2c(=O)[nH]1` [zaprinast], the pIC50 at Murine PDE9A (murine PDE9A) was 4.54.
In the case of `COc1ccc(C2CNC(=O)C2)cc1OC1CCCC1` (stereo not shown) [rolipram], the “inhibition on the isolated enzyme” value on human PDE9A is listed as “no inhibition”.
